# Assay results reported in patent US9586969B2, “Microbiocidal heterobicyclic derivatives” (Syngenta Participations AG, priority 2014, dated 2017).
# Tested on: Glomerella lagenarium (Colletotrichum lagenarium)
# Assay: Glomerella lagenarium (Colletotrichum lagenarium) / liquid culture (Anthracnose)
# Assay type: cell-based
# Conditions: Colletotrichum orbiculare; 200 ppm; liquid culture, 24° C., inhibition of growth measured photometrically 3-4 days after application; vs untreated control; read-out: disease control
row,Structure (SMILES),inhibition of growth at 200 ppm
1,CC1(C)N=C(c2cnn3cccc3c2)c2cccc(C#N)c2C1(C)C [E 68],≥ 80%
2,CC1(C)N=C(c2cnn3c(Cl)cc(Cl)c3c2)c2cccc(F)c2C1(C)C [E 69],≥ 80%
3,CC1(C)N=C(c2cnn3ccc(Br)c3c2)c2ccccc2C1(F)F [E 70],≥ 80%
4,CC1(C)N=C(c2cnn3cccc3c2)c2ccccc2C1(F)F [E 71],≥ 80%
5,CC1(C)N=C(c2cnn3cccc3c2)c2ccc(F)cc2C1(C)C [E 72],≥ 80%
6,CC1(C)N=C(c2cnn3cccc3c2)c2ccc(F)c(F)c2C1(C)C [E 73],≥ 80%
7,CC1(C)N=C(c2cnn3cc(F)cc3c2)c2cccc(F)c2C1(C)C [E 74],≥ 80%
8,Cc1nn2cccc2cc1C1=NC(C)(C)C(C)(C)c2cc(F)ccc21 [E 78],≥ 80%
9,Cc1c(C2=NC(C)(C)C(C)(C)c3cc(F)ccc32)cnn2cccc12 [E 79],≥ 80%
10,Cc1c(C2=NC(C)(C)C(C)(C)c3c2ccc(F)c3F)cnn2cccc12 [E 81],≥ 80%
11,Cc1c(C2=NC(C)(C)C(C)(C)c3c(F)cccc32)cnn2c(Br)ccc12 [E 82],≥ 80%
12,Cc1c(C2=NC(C)(C)C(C)(C)c3c(F)cccc32)cnn2c(C#N)ccc12 [E 83],≥ 80%
13,CC1(C)N=C(c2cnn3ccnc3c2)c2cccc(F)c2C1(C)C [E 85],≥ 80%
14,CC1(C)N=C(c2cnn3ccnc3c2)c2cccc(F)c2C1(F)F [E 89],≥ 80%
15,Cc1nn2cccc2cc1C1=NC(C)(C)C(C)(C)c2c(F)cccc21 [E 92],≥ 80%
16,Cc1c(C2=NC(C)(C)C(C)(C)c3c(F)cccc32)cnn2cccc12 [E 93],≥ 80%
17,CC1(C)N=C(c2cnn3cccc3c2)c2ccc(Cl)c(F)c2C1(C)C [E 94],≥ 80%
18,Cc1c(C2=NC(C)(C)C(C)(C)c3c(F)cccc32)cnn2c(F)ccc12 [E 95],≥ 80%

# Tested on: Botryotinia fuckeliana (Botrytis cinerea)
# Assay: Botryotinia fuckeliana (Botrytis cinerea) / liquid culture (Gray mould)
# Assay type: cell-based
# Conditions: 72 h, 200 ppm, liquid culture, 24° C., inhibition of growth determined photometrically 3-4 days after application, vs untreated control, read-out: disease control
row,Structure (SMILES),inhibition of growth at 200 ppm
1,CC1(C)Cc2ccccc2C(c2cnn3cccc3c2)N1 (centres unmarked) [E 20],≥ 80%
2,CC1(C)N=C(c2cnn3c(C(F)(F)F)cc(C(F)(F)F)c3c2)c2cccc(F)c2C1(C)C [E 36],≥ 80%
3,CC1(C)Cc2c(OC(F)F)cccc2C(c2cnn3cccc3c2)=N1 [E 39],≥ 80%
4,CC1(C)N=C(c2cnn3c(Br)cc(Br)c3c2)c2cccc(F)c2C1(C)C [E 44],≥ 80%
5,CC1(C)Cc2c(cccc2C2CC2)C(c2cnn3cccc3c2)=N1 [E 59],≥ 80%
6,CC1(C)Cc2ccccc2C(c2cnn3c(Br)ccc3c2)=N1 [E 65],≥ 80%
7,CC1(C)N=C(c2cnn3cccc3c2)c2cccc(C#N)c2C1(C)C [E 68],≥ 80%
8,CC1(C)N=C(c2cnn3c(Cl)cc(Cl)c3c2)c2cccc(F)c2C1(C)C [E 69],≥ 80%
9,CC1(C)N=C(c2cnn3ccc(Br)c3c2)c2ccccc2C1(F)F [E 70],≥ 80%
10,CC1(C)N=C(c2cnn3cccc3c2)c2ccccc2C1(F)F [E 71],≥ 80%
11,CC1(C)N=C(c2cnn3cccc3c2)c2ccc(F)cc2C1(C)C [E 72],≥ 80%
12,CC1(C)N=C(c2cnn3cccc3c2)c2ccc(F)c(F)c2C1(C)C [E 73],≥ 80%
13,CC1(C)N=C(c2cnn3cc(F)cc3c2)c2cccc(F)c2C1(C)C [E 74],≥ 80%
14,Cc1nn2cccc2cc1C1=NC(C)(C)C(C)(C)c2cc(F)ccc21 [E 78],≥ 80%
15,Cc1c(C2=NC(C)(C)C(C)(C)c3cc(F)ccc32)cnn2cccc12 [E 79],≥ 80%
16,Cc1c(C2=NC(C)(C)C(C)(C)c3c2ccc(F)c3F)cnn2cccc12 [E 81],≥ 80%
17,Cc1c(C2=NC(C)(C)C(C)(C)c3c(F)cccc32)cnn2c(Br)ccc12 [E 82],≥ 80%
18,Cc1c(C2=NC(C)(C)C(C)(C)c3c(F)cccc32)cnn2c(C#N)ccc12 [E 83],≥ 80%
19,CC1(C)N=C(c2cnn3ccnc3c2)c2cccc(F)c2C1(C)C [E 85],≥ 80%
20,CC1(C)Cc2c(F)cccc2C(c2cnn3ccnc3c2)=N1 [E 86],≥ 80%
21,CC1(C)N=C(c2cnn3c(C#N)cnc3c2)c2cccc(F)c2C1(F)F [E 88],≥ 80%
22,CC1(C)N=C(c2cnn3ccnc3c2)c2cccc(F)c2C1(F)F [E 89],≥ 80%
23,CC1(C)N=C(c2cnn3c(Br)cnc3c2)c2cccc(F)c2C1(F)F [E 91],≥ 80%
24,Cc1nn2cccc2cc1C1=NC(C)(C)C(C)(C)c2c(F)cccc21 [E 92],≥ 80%
25,Cc1c(C2=NC(C)(C)C(C)(C)c3c(F)cccc32)cnn2cccc12 [E 93],≥ 80%
26,CC1(C)N=C(c2cnn3cccc3c2)c2ccc(Cl)c(F)c2C1(C)C [E 94],≥ 80%
27,Cc1c(C2=NC(C)(C)C(C)(C)c3c(F)cccc32)cnn2c(F)ccc12 [E 95],≥ 80%

# Tested on: Monographella nivalis (Microdochium nivale)
# Assay: Monographella nivalis (Microdochium nivale) / liquid culture (Foot rot cereals)
# Assay type: cell-based
# Conditions: 96 h, 200 ppm, liquid culture, 24° C., inhibition of growth determined photometrically 4-5 days after application, vs untreated control, read-out: disease control
row,Structure (SMILES),inhibition of growth at 200 ppm
1,CC1(C)Cc2ccccc2C(c2cnn3c(Br)ccc3c2)=N1 [E 65],≥ 80%
2,CC1(C)N=C(c2cnn3c(Cl)cc(Cl)c3c2)c2cccc(F)c2C1(C)C [E 69],≥ 80%
3,CC1(C)N=C(c2cnn3ccc(Br)c3c2)c2ccccc2C1(F)F [E 70],≥ 80%
4,CC1(C)N=C(c2cnn3cccc3c2)c2ccccc2C1(F)F [E 71],≥ 80%
5,CC1(C)N=C(c2cnn3cccc3c2)c2ccc(F)cc2C1(C)C [E 72],≥ 80%
6,CC1(C)N=C(c2cnn3cccc3c2)c2ccc(F)c(F)c2C1(C)C [E 73],≥ 80%
7,CC1(C)N=C(c2cnn3cc(F)cc3c2)c2cccc(F)c2C1(C)C [E 74],≥ 80%
8,Cc1c(C2=NC(C)(C)C(C)(C)c3c(F)cccc32)cnn2c(Br)ccc12 [E 82],≥ 80%
9,CC1(C)N=C(c2cnn3ccnc3c2)c2cccc(F)c2C1(C)C [E 85],≥ 80%

# Tested on: Fusarium culmorum
# Assay: microbe, parasite or virus in culture
# Assay type: cell-based
# Conditions: 72 h, read-out: disease control
row,Structure (SMILES),inhibition of growth at 200 ppm
1,CC1(C)N=C(c2cnn3cccc3c2)c2cccc(F)c2C1(C)C [E 45],≥ 80%
2,CC1(C)N=C(c2cnn3cccc3c2)c2ccccc2C1(F)F [E 71],≥ 80%
3,CC1(C)N=C(c2cnn3cccc3c2)c2ccc(F)cc2C1(C)C [E 72],≥ 80%
4,CC1(C)N=C(c2cnn3cccc3c2)c2ccc(F)c(F)c2C1(C)C [E 73],≥ 80%
5,CC1(C)N=C(c2cnn3cc(F)cc3c2)c2cccc(F)c2C1(C)C [E 74],≥ 80%
6,Cc1nn2cccc2cc1C1=NC(C)(C)C(C)(C)c2cc(F)ccc21 [E 78],≥ 80%
7,Cc1c(C2=NC(C)(C)C(C)(C)c3cc(F)ccc32)cnn2cccc12 [E 79],≥ 80%
8,Cc1c(C2=NC(C)(C)C(C)(C)c3c2ccc(F)c3F)cnn2cccc12 [E 81],≥ 80%
